ChEMBL document CHEMBL1201862, “PubChem BioAssay data set” (2004)
Blank lines part the entries; values can stand above or below the compound they belong to. The source made the active and inactive calls.

Key:
Assay type in all cases: functional
Aurora kinase A = biological target: T1, Aurora kinase A (Homo sapiens, UniProt O14965);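 also: value from the Navigating the Kinome kinase panel profiling, panel entry STK6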
T1 sequence (O14965 whole entry): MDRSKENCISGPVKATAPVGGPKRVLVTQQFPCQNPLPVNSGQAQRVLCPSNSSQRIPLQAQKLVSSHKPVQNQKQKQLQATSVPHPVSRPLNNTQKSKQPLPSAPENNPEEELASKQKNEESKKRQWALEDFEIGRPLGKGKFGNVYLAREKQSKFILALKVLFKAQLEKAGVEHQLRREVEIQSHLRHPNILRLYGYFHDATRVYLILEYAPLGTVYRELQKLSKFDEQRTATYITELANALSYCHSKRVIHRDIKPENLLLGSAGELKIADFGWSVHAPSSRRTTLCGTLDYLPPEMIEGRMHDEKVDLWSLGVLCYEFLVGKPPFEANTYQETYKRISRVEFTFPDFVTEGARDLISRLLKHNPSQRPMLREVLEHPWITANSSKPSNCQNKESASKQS

[1] = biological target: Tyrosine-protein kinase ABL1 (Homo sapiens, UniProt P00519)
[2] = biological target: G protein-coupled receptor kinase 5 (Homo sapiens, UniProt P34947); assay: Navigating the Kinome. Panel member name: GPRK5
[3] = biological target: Death-associated protein kinase 3 (Homo sapiens, UniProt O43293);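 also: measured as one member of a kinome-wide profiling panel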
Sequence of Death-associated protein kinase 3 (O43293 whole entry): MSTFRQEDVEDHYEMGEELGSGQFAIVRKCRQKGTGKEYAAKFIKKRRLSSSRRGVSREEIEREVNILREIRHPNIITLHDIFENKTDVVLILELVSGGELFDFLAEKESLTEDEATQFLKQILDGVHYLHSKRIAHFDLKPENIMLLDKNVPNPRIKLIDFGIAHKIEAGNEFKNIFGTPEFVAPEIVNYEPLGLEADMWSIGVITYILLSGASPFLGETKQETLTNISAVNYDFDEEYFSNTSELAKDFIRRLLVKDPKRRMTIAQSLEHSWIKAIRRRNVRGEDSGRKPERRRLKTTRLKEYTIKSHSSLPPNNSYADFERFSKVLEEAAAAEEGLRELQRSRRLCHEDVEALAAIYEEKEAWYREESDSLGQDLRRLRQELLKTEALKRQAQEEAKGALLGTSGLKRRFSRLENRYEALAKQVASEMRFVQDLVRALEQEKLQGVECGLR

Activated CDC42 kinase 1 = Activated CDC42 kinase 1 (Homo sapiens, UniProt Q07912); assay: Navigating the Kinome. Panel member name: ACK1
Sequence of Activated CDC42 kinase 1 (Q07912 whole entry): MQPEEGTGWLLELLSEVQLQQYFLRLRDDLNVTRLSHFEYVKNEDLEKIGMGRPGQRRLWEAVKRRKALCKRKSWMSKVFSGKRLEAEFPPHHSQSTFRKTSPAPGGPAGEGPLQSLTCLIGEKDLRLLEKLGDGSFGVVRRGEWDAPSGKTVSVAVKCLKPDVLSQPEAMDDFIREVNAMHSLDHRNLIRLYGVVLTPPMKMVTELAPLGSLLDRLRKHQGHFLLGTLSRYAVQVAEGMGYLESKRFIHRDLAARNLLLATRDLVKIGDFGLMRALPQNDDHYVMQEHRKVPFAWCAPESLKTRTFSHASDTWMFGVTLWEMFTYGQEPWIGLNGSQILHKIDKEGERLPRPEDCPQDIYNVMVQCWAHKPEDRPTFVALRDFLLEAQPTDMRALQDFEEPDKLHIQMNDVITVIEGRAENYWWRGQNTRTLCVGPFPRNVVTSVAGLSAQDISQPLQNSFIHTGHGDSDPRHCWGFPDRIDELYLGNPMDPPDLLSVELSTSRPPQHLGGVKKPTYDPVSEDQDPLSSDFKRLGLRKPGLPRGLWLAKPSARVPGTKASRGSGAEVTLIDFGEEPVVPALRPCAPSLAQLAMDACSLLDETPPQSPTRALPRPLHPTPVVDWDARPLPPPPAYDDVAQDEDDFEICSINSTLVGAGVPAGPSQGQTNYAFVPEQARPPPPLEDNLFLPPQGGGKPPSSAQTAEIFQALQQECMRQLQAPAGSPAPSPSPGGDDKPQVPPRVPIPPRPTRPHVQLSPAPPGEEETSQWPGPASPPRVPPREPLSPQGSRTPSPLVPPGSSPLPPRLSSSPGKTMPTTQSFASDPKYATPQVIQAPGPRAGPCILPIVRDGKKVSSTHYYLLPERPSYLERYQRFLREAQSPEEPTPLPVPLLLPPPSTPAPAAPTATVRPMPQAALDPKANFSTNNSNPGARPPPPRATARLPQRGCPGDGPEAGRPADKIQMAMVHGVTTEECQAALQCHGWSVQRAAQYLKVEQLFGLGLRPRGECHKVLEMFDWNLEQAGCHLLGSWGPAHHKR

[4] = biological target: Calcium/calmodulin-dependent protein kinase type II subunit alpha (Homo sapiens, UniProt Q9UQM7); assay: Navigating the Kinome. Panel member name: CAMK2A
Sequence of Calcium/calmodulin-dependent protein kinase type II subunit alpha (Q9UQM7 whole entry): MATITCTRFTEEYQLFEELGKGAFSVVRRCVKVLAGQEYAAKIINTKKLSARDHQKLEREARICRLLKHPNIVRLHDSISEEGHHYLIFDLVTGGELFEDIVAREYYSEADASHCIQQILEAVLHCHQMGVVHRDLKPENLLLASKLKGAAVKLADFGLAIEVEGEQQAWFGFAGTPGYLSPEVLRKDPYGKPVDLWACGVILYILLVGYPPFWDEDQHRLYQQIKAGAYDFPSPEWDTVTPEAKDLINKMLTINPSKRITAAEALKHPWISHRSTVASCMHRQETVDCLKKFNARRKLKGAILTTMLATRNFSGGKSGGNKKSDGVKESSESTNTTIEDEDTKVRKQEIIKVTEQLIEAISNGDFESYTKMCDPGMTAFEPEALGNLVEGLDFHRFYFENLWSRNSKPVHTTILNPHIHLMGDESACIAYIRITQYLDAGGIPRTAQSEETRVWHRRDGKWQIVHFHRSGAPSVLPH

[5] = biological target: Cyclin-dependent kinase 5 (Homo sapiens, UniProt Q00535);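 also: CDK5 measured as one member of a kinase profiling panel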
LIM domain kinase 1 = LIM domain kinase 1 (Homo sapiens, UniProt P53667); assay: Navigating the Kinome. Panel member name: LIMK1
Sequence of LIM domain kinase 1 (P53667 whole entry, the tested form may be a part): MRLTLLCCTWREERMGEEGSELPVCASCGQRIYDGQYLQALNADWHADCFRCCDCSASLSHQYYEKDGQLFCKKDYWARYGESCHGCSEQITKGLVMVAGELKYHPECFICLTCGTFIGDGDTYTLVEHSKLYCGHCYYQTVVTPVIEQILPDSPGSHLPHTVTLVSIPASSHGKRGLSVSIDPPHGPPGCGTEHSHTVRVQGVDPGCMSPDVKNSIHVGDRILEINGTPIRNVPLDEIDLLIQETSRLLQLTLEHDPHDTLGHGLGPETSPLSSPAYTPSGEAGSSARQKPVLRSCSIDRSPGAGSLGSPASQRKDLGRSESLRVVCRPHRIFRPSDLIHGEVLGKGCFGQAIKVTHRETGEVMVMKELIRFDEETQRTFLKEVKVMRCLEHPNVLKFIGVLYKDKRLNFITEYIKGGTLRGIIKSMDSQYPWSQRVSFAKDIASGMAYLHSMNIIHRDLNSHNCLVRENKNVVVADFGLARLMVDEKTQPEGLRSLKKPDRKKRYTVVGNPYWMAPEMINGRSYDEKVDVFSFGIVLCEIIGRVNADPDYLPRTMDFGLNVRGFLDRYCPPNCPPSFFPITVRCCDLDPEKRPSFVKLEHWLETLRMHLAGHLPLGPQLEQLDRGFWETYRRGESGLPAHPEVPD

[6] = biological target: Fibroblast growth factor receptor 1 (Homo sapiens, UniProt P11362)
Sequence of Fibroblast growth factor receptor 1 (P11362 whole entry): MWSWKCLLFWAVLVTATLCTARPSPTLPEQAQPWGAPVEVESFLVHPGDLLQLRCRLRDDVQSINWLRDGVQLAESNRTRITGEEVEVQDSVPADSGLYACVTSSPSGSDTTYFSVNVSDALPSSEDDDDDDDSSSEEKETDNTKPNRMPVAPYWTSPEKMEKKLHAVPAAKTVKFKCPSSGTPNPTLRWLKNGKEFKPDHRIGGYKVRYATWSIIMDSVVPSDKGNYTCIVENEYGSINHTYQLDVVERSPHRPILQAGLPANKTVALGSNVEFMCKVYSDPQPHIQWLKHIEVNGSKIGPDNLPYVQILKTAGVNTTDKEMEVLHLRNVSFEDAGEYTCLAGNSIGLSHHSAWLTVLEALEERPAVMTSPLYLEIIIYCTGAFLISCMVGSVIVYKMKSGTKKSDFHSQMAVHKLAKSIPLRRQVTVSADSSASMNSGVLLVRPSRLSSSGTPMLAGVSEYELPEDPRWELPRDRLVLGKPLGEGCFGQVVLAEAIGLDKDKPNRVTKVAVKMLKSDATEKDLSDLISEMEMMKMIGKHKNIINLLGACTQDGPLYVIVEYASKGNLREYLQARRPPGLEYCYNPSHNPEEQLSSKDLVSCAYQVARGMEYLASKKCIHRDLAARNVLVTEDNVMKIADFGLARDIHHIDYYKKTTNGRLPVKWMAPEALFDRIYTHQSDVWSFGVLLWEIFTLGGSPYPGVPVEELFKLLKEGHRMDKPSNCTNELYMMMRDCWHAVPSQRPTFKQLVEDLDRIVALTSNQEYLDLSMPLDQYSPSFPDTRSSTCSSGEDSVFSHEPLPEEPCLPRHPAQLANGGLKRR

[7] = biological target: Dual specificity tyrosine-phosphorylation-regulated kinase 1A (Homo sapiens, UniProt Q13627);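 also: measured against DYRK1A as one member of a broad kinome profiling panel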
[8] = biological target: Macrophage colony-stimulating factor 1 receptor (Homo sapiens, UniProt P07333);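 also: value comes from the Navigating the Kinome screening panel, CSF1R member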
[9] = biological target: Macrophage-stimulating protein receptor (Homo sapiens, UniProt Q04912); assay: Navigating the Kinome. Panel member name: MST1R
[10] = biological target: Rho-associated protein kinase 1 (Homo sapiens, UniProt Q13464);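 also: measured within a broad kinome-wide panel profiling many kinases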
[11] = biological target: Insulin-like growth factor 1 receptor (Homo sapiens, UniProt P08069); assay: Navigating the Kinome. Panel member name: IGF1R
Aurora kinase B = Aurora kinase B (Homo sapiens, UniProt Q96GD4)
[12] = biological target: Mitogen-activated protein kinase kinase kinase kinase 2 (Homo sapiens, UniProt Q12851);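 also: measured as one member of a kinome-wide kinase panel, with MAP4K2 as the panel entry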
Sequence of Mitogen-activated protein kinase kinase kinase kinase 2 (Q12851 whole entry): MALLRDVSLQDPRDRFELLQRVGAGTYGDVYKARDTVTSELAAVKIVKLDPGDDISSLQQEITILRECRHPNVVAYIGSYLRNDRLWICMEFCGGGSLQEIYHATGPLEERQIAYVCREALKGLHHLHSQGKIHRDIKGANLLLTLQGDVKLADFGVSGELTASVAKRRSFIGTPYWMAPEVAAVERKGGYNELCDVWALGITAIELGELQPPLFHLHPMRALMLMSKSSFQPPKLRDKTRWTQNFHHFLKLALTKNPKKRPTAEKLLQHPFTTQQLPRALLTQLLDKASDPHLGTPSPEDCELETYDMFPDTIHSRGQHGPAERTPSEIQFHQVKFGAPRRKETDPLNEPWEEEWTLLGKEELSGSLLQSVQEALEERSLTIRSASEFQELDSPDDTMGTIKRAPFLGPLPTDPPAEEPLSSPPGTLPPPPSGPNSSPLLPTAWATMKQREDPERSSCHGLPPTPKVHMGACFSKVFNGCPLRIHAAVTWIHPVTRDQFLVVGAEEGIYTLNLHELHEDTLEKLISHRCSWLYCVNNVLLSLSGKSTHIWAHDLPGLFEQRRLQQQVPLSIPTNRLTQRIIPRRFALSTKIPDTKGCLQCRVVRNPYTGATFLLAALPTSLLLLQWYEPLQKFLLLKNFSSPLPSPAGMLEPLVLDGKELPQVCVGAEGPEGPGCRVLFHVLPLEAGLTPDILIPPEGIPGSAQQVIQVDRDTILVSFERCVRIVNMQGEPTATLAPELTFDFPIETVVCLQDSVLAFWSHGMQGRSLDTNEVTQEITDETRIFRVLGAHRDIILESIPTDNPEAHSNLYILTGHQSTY

[13] = biological target: Cyclin-dependent kinase 8 (Homo sapiens, UniProt P49336); assay: Navigating the Kinome. Panel member name: CDK8
[14] = biological target: Serine/threonine-protein kinase PAK 4 (Homo sapiens, UniProt O96013);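 also: value obtained within a kinome profiling panel in which PAK4 was one of the panel members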
[15] = biological target: Casein kinase I isoform alpha (Homo sapiens, UniProt P48729)
[16] = biological target: Tyrosine-protein kinase receptor TYRO3 (Homo sapiens, UniProt Q06418);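 also: TYRO3 value obtained as one member of a kinome-wide profiling panel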
[17] = biological target: Ribosomal protein S6 kinase alpha-3 (Homo sapiens, UniProt P51812);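 also: measured within a kinome-wide profiling panel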
Sequence of Ribosomal protein S6 kinase alpha-3 (P51812 whole entry): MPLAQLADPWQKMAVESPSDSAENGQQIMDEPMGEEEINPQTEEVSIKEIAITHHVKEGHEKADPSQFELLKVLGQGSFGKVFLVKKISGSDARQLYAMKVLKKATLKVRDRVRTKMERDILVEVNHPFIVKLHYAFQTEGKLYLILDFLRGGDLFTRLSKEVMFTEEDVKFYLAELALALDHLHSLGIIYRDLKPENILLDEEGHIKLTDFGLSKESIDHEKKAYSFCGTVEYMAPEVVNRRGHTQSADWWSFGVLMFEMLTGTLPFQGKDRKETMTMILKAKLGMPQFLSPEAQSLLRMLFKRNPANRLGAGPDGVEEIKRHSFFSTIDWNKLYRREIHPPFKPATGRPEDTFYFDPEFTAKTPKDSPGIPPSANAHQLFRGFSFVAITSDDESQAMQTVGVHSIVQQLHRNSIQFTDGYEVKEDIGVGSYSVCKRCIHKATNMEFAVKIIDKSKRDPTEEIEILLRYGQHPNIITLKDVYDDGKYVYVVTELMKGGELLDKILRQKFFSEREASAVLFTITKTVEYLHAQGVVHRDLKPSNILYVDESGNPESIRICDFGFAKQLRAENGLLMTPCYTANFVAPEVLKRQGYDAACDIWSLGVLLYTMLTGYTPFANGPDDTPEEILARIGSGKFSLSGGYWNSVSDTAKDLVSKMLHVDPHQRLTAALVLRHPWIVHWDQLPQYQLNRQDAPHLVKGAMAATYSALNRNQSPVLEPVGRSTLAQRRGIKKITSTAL

[18] = biological target: Dual specificity mitogen-activated protein kinase kinase 2 (Homo sapiens, UniProt P36507); assay: Navigating the Kinome. Panel member name: MAP2K2
[19] = biological target: Cyclin-dependent kinase 9 (Homo sapiens, UniProt P50750);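 also: value from the CDK9 entry of a kinome-spanning kinase panel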
[20] = Counterscreen for antagonists of the orexin 1 receptor (OX1R; HCRTR1): Fluorescence-based cell-based high throughput dose response assay to identify antagonists of the parental CHO cell line. [Related pubchem assays (depositor defined):AID434989, AID435008, AID463079, AID485270, AID492963, AID492964, AID492965, AID493232, AID504699, AID504701]
Orexin receptor type 2 [21] = biological target: T2, Orexin receptor type 2 (Homo sapiens, UniProt O43614); assay: Counterscreen assay for antagonists of the orexin 1 receptor (OX1R; HCRTR1): Fluorescence-based cell-based dose response assay for antagonists of the orexin 2 receptor (OX2R; HCRTR2), run by assay provider.
T2 sequence (O43614 whole entry): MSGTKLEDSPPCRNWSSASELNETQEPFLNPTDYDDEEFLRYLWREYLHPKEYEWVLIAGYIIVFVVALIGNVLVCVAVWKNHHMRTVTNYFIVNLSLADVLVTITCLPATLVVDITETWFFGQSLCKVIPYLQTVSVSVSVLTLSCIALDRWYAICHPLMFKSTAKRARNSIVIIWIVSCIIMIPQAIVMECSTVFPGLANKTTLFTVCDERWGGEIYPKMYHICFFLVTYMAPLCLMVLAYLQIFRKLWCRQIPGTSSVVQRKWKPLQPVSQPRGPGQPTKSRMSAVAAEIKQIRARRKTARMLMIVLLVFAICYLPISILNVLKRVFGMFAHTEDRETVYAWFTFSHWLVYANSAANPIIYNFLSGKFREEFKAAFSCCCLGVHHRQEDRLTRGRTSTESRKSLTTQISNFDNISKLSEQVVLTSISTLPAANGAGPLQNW

Orexin receptor type 2 [22] = biological target: T2, Orexin receptor type 2; assay: Counterscreen assay for antagonists of the orexin 1 receptor (OX1R; HCRTR1): Homogeneous Time Resolved Fluorescence (HTRF)-based cell-based dose response assay for antagonists of the orexin 2 receptor (OX2R; HCRTR2), run by assay provider.
[23] = biological target: T3, Sentrin-specific protease 8 (Homo sapiens, UniProt Q96LD8);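 also: luminescence read-out of SENP8 inhibition, dose-response confirmation following an ultra-high-throughput screen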
T3 sequence (Q96LD8 whole entry): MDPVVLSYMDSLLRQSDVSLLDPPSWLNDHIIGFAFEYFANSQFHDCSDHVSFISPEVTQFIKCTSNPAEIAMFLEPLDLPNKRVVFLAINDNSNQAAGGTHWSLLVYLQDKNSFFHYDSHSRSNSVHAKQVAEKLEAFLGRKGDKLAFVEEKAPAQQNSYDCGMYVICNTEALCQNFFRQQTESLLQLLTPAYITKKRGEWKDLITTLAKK

Ki (Aurora kinase A): > 1.58 µM (inactive)
Ki [1]: > 2.51 µM (inactive)
Ki [2]: > 3.98 µM (inactive)
Ki (Activated CDC42 kinase 1): > 3.98 µM (inactive)
Ki [4]: 3.98 µM (active)
Ki [5]: 0.158 µM (active)
Ki (LIM domain kinase 1): > 3.16 µM (inactive)
Ki [6]: > 3.98 µM (inactive)
Ki [7]: 0.126 µM (active)
Ki [8]: > 2.51 µM (inactive)
Ki [9]: 2.51 µM (active)
Ki [10]: 0.0631 µM (active)
Ki [11]: > 2.51 µM (inactive)
Ki (Aurora kinase B): > 3.98 µM (inactive)
Ki [12]: > 2.51 µM (inactive)
Ki [13]: 0.0794 µM (active)
Ki [14]: > 5.01 µM (inactive)
Ki [15]: 1.58 µM (active)
Ki [16]: > 3.16 µM (inactive)
Ki [17]: > 3.98 µM (inactive)
Ki [18]: 3.16 µM (active)
Ki [19]: 0.398 µM (active)
Structure (SMILES): O=C(NCCc1cccs1)N1CC=C(c2c[nH]c3ncccc23)CC1
Ki [3]: 3.98 µM (active)

Structure (SMILES): Cc1ccnc2ccc(-c3nc4ccccc4o3)cc12
IC50 [20]: > 49.8 µM (inactive)
IC50 (Orexin receptor type 2 [21]): > 88.8 µM (inactive)
IC50 (Orexin receptor type 2 [22]): > 50 µM (inactive)
IC50 [23]: 71 µM (active)
